According to the supplement of paper PMC10307832:

Columns and labels:
Experiment in all cases: relative viability (nuclei count vs DMSO), 5 days (fraction); higher = more cells survive
[1] = compound: CC1=C(C(=NN1)C)CC2=C(C3=C(S2)N(C(=O)N(C3=O)C)CC(C)C)C(=O)N4C[C@@H](CO4)O + CC(C)C[C@H](NC(=O)[C@H](Cc1ccccc1)NC(=O)c1cnccn1)B(O)O [Bortezomib] (partner 0.002 µM)
Method in brief: (§1)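 For relative viability, nuclei counts in treated wells were divided by those in vehicle wells. Lung cancer cell lines had been pin-tool dosed in 1536-well plates the day after seeding and cultured for 5 days, then fixed and stained in one step (final 0.05% Triton X-100, 1% formaldehyde, 1 ug/ml Hoechst) and imaged at 4×. Doses were one drug alone or a fixed anchor-drug dose plus five library-drug doses (not always all listed) in √10 steps, and values are duplicate-plate medians.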

[2] = compound: CC1=C(C(=NN1)C)CC2=C(C3=C(S2)N(C(=O)N(C3=O)C)CC(C)C)C(=O)N4C[C@@H](CO4)O + CCNC(=O)c1noc(-c2cc(C(C)C)c(O)cc2O)c1-c1ccc(CN2CCOCC2)cc1 [Luminespib] (partner 0.01 µM)
Method in brief: as §1

[3] = compound: CC1=C(C(=NN1)C)CC2=C(C3=C(S2)N(C(=O)N(C3=O)C)CC(C)C)C(=O)N4C[C@@H](CO4)O + Cc1nc(Nc2ncc(C(=O)Nc3c(C)cccc3Cl)s2)cc(N2CCN(CCO)CC2)n1 [Dasatinib] (partner 0.075 µM)
Method in brief: as §1

IDH-C35 + Lapatinib = compound: Cc1ccccc1C(C(=O)NC1CCCCC1)N(C(=O)Cn1ccnc1C)c1cccc(F)c1 [IDH-C35] + CS(=O)(=O)CCNCc1ccc(-c2ccc3ncnc(Nc4ccc(OCc5cccc(F)c5)c(Cl)c4)c3c2)o1 [Lapatinib] (partner 2 µM)
Method in brief: as §1

UMC-11
relative viability ([1]; first compound 0.0025 µM): 0.667 | relative viability ([1]; first compound 0.007906 µM): 0.189 | relative viability ([1]; first compound 0.025 µM): 0.173 | relative viability ([1]; first compound 0.07906 µM): 0.22 | relative viability ([1]; first compound 0.25 µM): 0.32 | relative viability ([2]; first compound 0.0025 µM): 1.06 | relative viability ([2]; first compound 0.007906 µM): 1.33 | relative viability ([2]; first compound 0.025 µM): 0.959 | relative viability ([2]; first compound 0.07906 µM): 1.08 | relative viability ([2]; first compound 0.25 µM): 1.13 | relative viability ([3]; first compound 0.0025 µM): 0.435 | relative viability ([3]; first compound 0.007906 µM): 0.468 | relative viability ([3]; first compound 0.025 µM): 0.451 | relative viability ([3]; first compound 0.07906 µM): 0.348 | relative viability ([3]; first compound 0.25 µM): 0.439 | relative viability (IDH-C35 + Lapatinib; first compound 0.08 µM): 1.01 | relative viability (IDH-C35 + Lapatinib; first compound 0.253 µM): 0.976 | relative viability (IDH-C35 + Lapatinib; first compound 0.8 µM): 0.98 | relative viability (IDH-C35 + Lapatinib; first compound 2.53 µM): 0.96 | relative viability (IDH-C35 + Lapatinib; first compound 8 µM): 1.09
